Experimental data from PubChem BioAssay (NCI).
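Grown in 96-well plates, cells were treated for 48 hours with each compound at five concentrations. Insufficient inhibition: endpoint recorded as highest concentration tested. GI50: concentration for 50% inhibition of growth. Definition used: TGI = concentration required for complete inhibition of growth.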

Assays:
Test in all cases: NCI anticancer screen, dose series, 48 h
XF 498 CNS = tested on: XF 498 CNS
LXFL 529 NSCLC = tested on: LXFL 529 NSCLC
COLO 205 colon = tested on: COLO 205 colon
DMS 273 small cell lung = tested on: DMS 273 small cell lung
A549 NSCLC = tested on: A549 NSCLC
HOP-18 NSCLC = tested on: HOP-18 NSCLC
DLD-1 colon = tested on: DLD-1 colon
DU-145 prostate = tested on: DU-145 prostate
BT-549 breast = tested on: BT-549 breast
NCI/ADR-RES ovarian = tested on: NCI/ADR-RES ovarian

Compound	TGI (XF 498 CNS)	TGI (LXFL 529 NSCLC)	TGI (COLO 205 colon)	TGI (DMS 273 small cell lung)	TGI (A549 NSCLC)	GI50 (LXFL 529 NSCLC)	GI50 (HOP-18 NSCLC)	TGI (HOP-18 NSCLC)	GI50 (COLO 205 colon)	GI50 (DLD-1 colon)	TGI (DLD-1 colon)	GI50 (DMS 273 small cell lung)	GI50 (A549 NSCLC)	GI50 (DU-145 prostate)	TGI (DU-145 prostate)	GI50 (BT-549 breast)	TGI (BT-549 breast)	GI50 (NCI/ADR-RES ovarian)	TGI (NCI/ADR-RES ovarian)
CCN(CC)CCn1c2ccccc2c(=O)c2c(OC)ccc(OC)c21	> 100 µM	> 100 µM	> 100 µM	> 100 µM	> 100 µM														
C1C[OH+]CC[OH+]CCNCC[OH+]CC[OH+]CCN1.Cl.[Cl-].[Pt+4]		> 100 µM	> 100 µM	> 100 µM	> 100 µM	> 100 µM	> 100 µM	> 100 µM	> 100000 nM	> 100 µM	> 100 µM	> 100 µM	> 100000 nM						
COC[C@H](C)N=CN1CCc2ccccc2C1(Cc1ccccc1)Cc1ccccc1	24.8 µM	25.3 µM	34.6 µM		> 100 µM			24 µM			29.8 µM								
CCN(CC)CCNc1ccc2nc(C)n3c4ccc(O)cc4c(=O)c1c23		16.5 µM		3.15 µM	1.25 µM						10.5 µM								
COc1ccc2nc(NC(=O)C(=O)NNC(=O)c3ccncc3)sc2c1	> 100 µM	> 100 µM	> 100 µM		> 100 µM			> 100 µM			> 100 µM								
c1ccc2c(NCCCCCCNc3cccc4ccccc34)cccc2c1	> 100 µM	> 100 µM	> 100 µM	> 100 µM	> 100 µM			> 100 µM			> 100 µM								
C=C(CCCO)[C@@H]1CC[C@@](C)(O)[C@H]1C	> 100 µM	> 100 µM	> 100 µM	> 100 µM	> 100 µM			> 100 µM											
COc1ccc(/C=C2\c3cc(OC)c(OC)c(OC)c3CC[C@@H]2O)cc1F			7.59 µM		> 100 µM				1030 nM				693 nM	322 nM	> 100 µM	443 nM	42.7 µM	196 nM	1310 nM
CCOC1CC2OC(=O)C1C=C2C(=O)OC (centres undefined)	53.9 µM	36.1 µM	37.2 µM		> 100 µM			> 100 µM			65.8 µM								
CSCCC(C(=O)O)N(CC1(O)OCC(O)C(O)C1O)N=O (centres undefined)	> 100 µM	> 100 µM	> 100 µM	> 100 µM	> 100 µM						> 100 µM								
C[Si](C)(C)C(Sc1ccccc1)(Sc1ccccc1)Sc1ccccc1	> 100 µM	> 100 µM	> 100 µM	> 100 µM	> 100 µM						> 100 µM								
